Here are results for 18 compounds from patent US11098041B2 (Merck Patent GmbH, priority 2014, dated 2021).

The target in one experiment is full-length human BTK (Homo sapiens (Human), UniProt Q06187). The experiment is described as follows: Assay A: microfluidic off-chip mobility shift assay against BTK enzyme. The class given is biochemical.
Experiment [1] deals with BTK C481S (His-TEV-hsBTK(328-659)(C481S)) (Homo sapiens (Human), UniProt Q06187, C481S). Put plainly: Assay B: microfluidic off-chip mobility shift assay against BTK C481S enzyme. The class given is biochemical. The settings on record: BTK C481S mutant. On the procedure: The mechanics of the assay platform are described by the vendor (PerkinElmer, Hopkinton, Mass.) on their website at the following URL: http://caliperls.com.
5 uL of enzyme buffer and 7.5 uL of ATP/KinKDR peptide substrate mix were added to Matrix (#4315) 384-well, sterile, flat-bottom polypropylene plates (Thermo Fisher Scientific, Hudson, N.H.) with 125 nL of serially diluted compounds prepared in 100% DMSO, and incubated for 90 min. at 25° C. Following the incubation period, reactions were terminated by adding 65 uL quench buffer consisting of 100 mM HEPES, pH 7.5, 0.015% Brij-35 (30%), 0.277% Coating Reagent #3 (PerkinElmer, Mountain View, Calif.), 5% DMSO. Terminated reactions were monitored at −2 PSI, −3000 V/−700 Volts in a LabChip 3000 plate reader from Caliper Life Sciences, a PerkinElmer Company (Hopkinton, Mass.), and the activity was quantified by laser-induced fluorescence measuring the charge/mass difference between substrate and product resulting from peptide phosphorylation. IC50 and efficacy were determined by plotting log [Inhibitor] vs. % Activity in GeneData Screener (Basel, Switzerland).

In experiment [2] the test system is anti-IgM-induced expression of CD69 on CD19 positive cells (B cells) in human PBMCs. Put plainly: Assay C: PBMC IC50 assay (anti-IgM-induced CD69 expression). Conditions: anti-IgM stimulation. The class given is cell-based. As for the experimental part: Btk is critical for mediating the signalling of B cell antigen receptor (BCR) after anti-IgM stimulation. Based on this principle, a functional cell-based assay was established to determine the potency of compounds at inhibiting anti-IgM-induced expression of CD69, a downstream BCR signaling event, in freshly isolated human peripheral blood mononuclear cells (PBMCs). In the assay, a 90 μl PBMC suspension containing 2.5×10^5 cells was pre-treated with 10 μl of test compound at various concentrations for an hour, and then incubated overnight (approximately 16-18 hours) with 5 μl 420 μg/ml affiniPure F(ab′)2 fragment goat anti-human IgM Fc fragment per well (Dianova, Cat. No.: 109-006-129). After the incubation, the cells were washed and immunostained with an APC-labeled mouse anti-human CD69 (BD Biosciences; clone: FN50), a PerCP-Cy5.5 labelled mouse anti-human CD19 (BD Biosciences; clone: SJ25C1) and a FITC-labelled mouse anti-human CD3 (BD Biosciences; clone: HIT3a), and fixed for flow cytometric analysis of CD69 expression on CD19 positive cells (B cells). The percentage of CD69 expressing CD19 positive cells was plotted against the concentrations of test compounds to obtain a concentration response curve, and calculate an IC50 value as a measure of the potency of test compounds in the assay.

Chain of BTK C481S (His-TEV-hsBTK(328-659)(C481S)) (Q06187 328-659 C481S): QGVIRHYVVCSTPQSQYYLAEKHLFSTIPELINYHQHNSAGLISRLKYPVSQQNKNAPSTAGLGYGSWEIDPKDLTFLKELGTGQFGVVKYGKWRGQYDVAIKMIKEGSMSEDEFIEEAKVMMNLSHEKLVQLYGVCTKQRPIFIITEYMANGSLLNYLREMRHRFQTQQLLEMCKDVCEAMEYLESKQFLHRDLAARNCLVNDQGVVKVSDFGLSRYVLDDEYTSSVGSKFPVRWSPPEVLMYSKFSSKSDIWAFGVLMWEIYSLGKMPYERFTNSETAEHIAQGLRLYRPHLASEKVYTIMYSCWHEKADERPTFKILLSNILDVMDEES
Chain of full-length human BTK (Q06187 whole entry): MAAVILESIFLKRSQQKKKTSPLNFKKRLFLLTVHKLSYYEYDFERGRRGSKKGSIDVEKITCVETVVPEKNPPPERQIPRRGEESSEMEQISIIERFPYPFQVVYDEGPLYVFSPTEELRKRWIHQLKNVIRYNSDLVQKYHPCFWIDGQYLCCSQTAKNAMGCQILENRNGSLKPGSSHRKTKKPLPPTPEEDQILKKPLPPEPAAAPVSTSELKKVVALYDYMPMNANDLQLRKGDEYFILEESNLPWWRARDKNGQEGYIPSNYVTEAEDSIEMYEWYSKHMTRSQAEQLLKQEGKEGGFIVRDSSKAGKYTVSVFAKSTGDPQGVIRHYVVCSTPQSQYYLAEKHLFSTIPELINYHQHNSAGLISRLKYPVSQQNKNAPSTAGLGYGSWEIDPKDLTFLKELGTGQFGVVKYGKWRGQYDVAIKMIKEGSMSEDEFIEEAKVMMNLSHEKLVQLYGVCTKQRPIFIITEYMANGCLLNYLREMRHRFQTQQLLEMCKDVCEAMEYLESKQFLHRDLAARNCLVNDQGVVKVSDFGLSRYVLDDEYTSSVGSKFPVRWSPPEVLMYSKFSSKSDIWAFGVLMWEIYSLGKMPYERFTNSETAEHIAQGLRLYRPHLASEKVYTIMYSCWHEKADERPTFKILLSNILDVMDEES

As for `CN1CCN(Cc2ccc(-c3nc4c(-c5ccc(CNC(=O)c6noc(C(C)(C)C)n6)c(F)c5)ccnc4[nH]3)cc2)CC1` [Example 71, 5-tert-Butyl-N-[[2-fluoro-4-(2-[4-[(4-methylpiperazin-1-yl)methyl]phenyl]-1H-imidazo[4,5-b]pyridin-7-yl)phenyl]methyl]-1,2,4-oxadiazole-3-carboxamide], the half-inhibitory concentration (IC50) (on full-length human BTK; in experiment [1]; in experiment [2]) was under 0.1 µM each time.
As for `CC(C)(C)c1nc(C(=O)NCc2ccc(-c3ccnc4[nH]c(-c5cccc(OC(F)(F)F)c5)nc34)cc2F)no1` [Example 74, 5-tert-Butyl-N-[(2-fluoro-4-[2-[3-(trifluoromethoxy)phenyl]-3H-imidazo[4,5-b]pyridin-7-yl]phenyl)methyl]-1,2,4-oxadiazole-3-carboxamide; trifluoroacetic acid], the half-inhibitory concentration (IC50) is under 0.1 µM on full-length human BTK, under 0.1 µM in experiment [1] and 0.1 to 1 µM in experiment [2].
`CN(C)c1ccc(-c2nc3c(-c4ccc(CNC(=O)c5noc(C(C)(C)C)n5)c(F)c4)ccnc3[nH]2)cc1` [Example 145, 5-(tert-butyl)-N-(4-(2-(4-(dimethylamino)phenyl)-3H-imidazo[4,5-b]pyridin-7-yl)-2-fluorobenzyl)-1,2,4-oxadiazole-3-carboxamide]: the IC50 (on full-length human BTK; in experiment [1]; in experiment [2]) was under 0.1 µM throughout.
For `CC(C)(C)c1nc(C(=O)NCc2ccc(-c3ccnc4[nH]c(-c5ccc(N6CCCCC6)cn5)nc34)cc2F)no1` [Example 83, 5-tert-Butyl-N-[(2-fluoro-4-[2-[5-(piperidin-1-yl)pyridin-2-yl]-3H-imidazo[4,5-b]pyridin-7-yl]phenyl)methyl]-1,2,4-oxadiazole-3-carboxamide], the IC50 (at full-length human BTK; in experiment [1]; in experiment [2]) was under 0.1 µM each time.
As for `CN(C)c1ccc(-c2nc3c(-c4ccc(CNC(=O)c5nc(C(C)(C)C)no5)c(F)c4)ccnc3[nH]2)nc1` [Example 148, 3-(tert-butyl)-N-(4-(2-(5-(dimethylamino)pyridin-2-yl)-3H-imidazo[4,5-b]pyridin-7-yl)-2-fluorobenzyl)-1,2,4-oxadiazole-5-carboxamide], the IC50 (at full-length human BTK; in experiment [1]; in experiment [2]) was under 0.1 µM in each case.
As for `Cn1cc(-c2nc3c(-c4ccnc(N5CCn6c(cc7c6CC(C)(C)C7)C5=O)c4CO)ccnc3[nH]2)cn1` [Example 11, 2-(3-(hydroxymethyl)-4-(2-(1-methyl-1H-pyrazol-4-yl)-3H-imidazo[4,5-b]pyridin-7-yl)pyridin-2-yl)-7,7-dimethyl-2,3,4,6,7,8-hexahydro-1H-cyclopenta[4,5]pyrrolo[1,2-a]pyrazin-1-one], the 50% inhibitory concentration (IC50) is under 0.1 µM on full-length human BTK, under 0.1 µM in experiment [1] and 0.1 to 1 µM in experiment [2].
For `Cn1cc(-c2nc3c(-c4ccc(CNC(=O)c5ccc(C(C)(C)C)cc5)cc4)ccnc3[nH]2)cn1` [Example 110, 4-tert-Butyl-N-{4-[2-(1-methyl-1H-pyrazol-4-yl)-3H-imidazo[4,5-b]pyridin-7-yl]-benzyl}-benzamide], the half-maximal inhibitory concentration (IC50) is under 0.1 µM at full-length human BTK, under 0.1 µM in experiment [1] and 0.1 to 1 µM in experiment [2].
As to `Cn1cc(-c2nc3c(-c4ccc(C5(NC(=O)c6ccc(C(C)(C)C)cc6)CC5)cc4)ccnc3[nH]2)cn1` [Example 113, 4-tert-Butyl-N-(1-{4-[2-(1-methyl-1H-pyrazol-4-yl)-3H-imidazo[4,5-b]pyridin-7-yl]-phenyl}-cyclopropyl)-benzamide], the values for the IC50 (on full-length human BTK; in experiment [1]; in experiment [2]) were under 0.1 µM, under 0.1 µM and 0.1 to 1 µM, respectively.
On to `Cn1cc(-c2nc3c(-c4ccc(CNC(=O)c5cc(C(C)(C)C)on5)c(F)c4)ccnc3[nH]2)cn1` [Example 67, 5-tert-Butyl-N-([2-fluoro-4-[2-(1-methyl-1H-pyrazol-4-yl)-3H-imidazo[4,5-b]pyridin-7-yl]phenyl]methyl)-1,2-oxazole-3-carboxamide], for which the half-maximal inhibitory concentration (IC50) (at full-length human BTK; in experiment [1]; in experiment [2]) was under 0.1 µM throughout.
As for `COc1ccc(-c2nc3c(-c4ccc(CNC(=O)c5ccc(C(C)(C)C)cc5)c(F)c4)ccnc3[nH]2)cc1` [Example 62, 4-tert-Butyl-N-([2-fluoro-4-[2-(4-methoxyphenyl)-3H-imidazo[4,5-b]pyridin-7-yl]phenyl]methyl) benzamide], the IC50 at full-length human BTK was under 0.1 µM; in experiment [1] it was under 0.1 µM; in experiment [2] it was 0.1 to 1 µM.
Consider `Cn1cc(-c2nc3c(-c4cc(F)cc(N5CCn6c(cc7c6CC(C)(C)C7)C5=O)c4CO)ccnc3[nH]2)cn1` [Example 10, 2-(5-fluoro-2-(hydroxymethyl)-3-(2-(1-methyl-1H-pyrazol-4-yl)-3H-imidazo[4,5-b]pyridin-7-yl)phenyl)-7,7-dimethyl-2,3,4,6,7,8-hexahydro-1H-cyclopenta[4,5]pyrrolo[1,2-a]pyrazin-1-one], for which the concentration for half-maximal inhibition (IC50) (at full-length human BTK; in experiment [1]; in experiment [2]) was under 0.1 µM throughout.
On to `Cn1cc(-c2nc3c(-c4ccc(CNC(=O)c5nc(C(C)(C)C)no5)cc4CO)ccnc3[nH]2)cn1` [Example 105, 3-tert-Butyl-[1,2,4]oxadiazole-5-carboxylic acid 3-hydroxymethyl-4-[2-(1-methyl-1H-pyrazol-4-yl)-3H-imidazo[4,5-b]pyridin-7-yl]-benzylamide], for which the IC50 is under 0.1 µM at full-length human BTK, under 0.1 µM in experiment [1] and 1 to 5 µM in experiment [2].
Turning to `Cn1cc(-c2nc3c(-c4ccc(CNC(=O)c5noc(C(C)(C)N)n5)c(F)c4)ccnc3[nH]2)cn1` [Example 58, 5-(2-Aminopropan-2-yl)-N-([2-fluoro-4-[2-(1-methyl-1H-pyrazol-4-yl)-3H-imidazo[4,5-b]pyridin-7-yl]phenyl]methyl)-1,2,4-oxadiazole-3-carboxamide], the IC50 at full-length human BTK is under 0.1 µM; in experiment [1], under 0.1 µM; in experiment [2], 1 to 5 µM.
Regarding `Cn1cc(-c2nc3c(-c4ccc(CN5CCOc6cc(C7CC7)cc(F)c6C5=O)c(F)c4)ccnc3[nH]2)cn1` [Example 34, 8-Cyclopropyl-6-fluoro-4-([2-fluoro-4-[2-(1-methyl-1H-pyrazol-4-yl)-3H-imidazo[4,5-b]pyridin-7-yl]phenyl]methyl)-2,3,4,5-tetrahydro-1,4-benzoxazepin-5-one], the IC50 on full-length human BTK was under 0.1 µM; in experiment [1] it was under 0.1 µM; in experiment [2], 0.1 to 1 µM.
For the compound `Cn1cc(-c2nc3c(-c4ccc(CNC(=O)CCCC5CCCC5)c(F)c4)ccnc3[nH]2)cn1` [Example 16, 4-Cyclopentyl-N-{2-fluoro-4-[2-(1-methyl-1H-pyrazol-4-yl)-3H-imidazo[4,5-b]pyridin-7-yl]-benzyl}-butyramide], the half-maximal inhibitory concentration (IC50) was under 0.1 µM at full-length human BTK, under 0.1 µM in experiment [1] and over 5 µM in experiment [2].
As to `Cn1cc(-c2nc3c(-c4ccc(CN5Cc6cc(C7CC7)sc6C5=O)c(F)c4)ccnc3[nH]2)cn1` [Example 93, 2-Cyclopropyl-5-([2-fluoro-4-[2-(1-methyl-1H-pyrazol-4-yl)-3H-imidazo[4,5-b]pyridin-7-yl]phenyl]methyl)-4H,5H,6H-thieno[2,3-c]pyrrol-6-one], the results for the IC50 (at full-length human BTK; in experiment [1]; in experiment [2]) were under 0.1 µM, under 0.1 µM and 0.1 to 1 µM, respectively.
As for `COc1ccnc(-c2nc3c(-c4ccc(CNC(=O)c5noc(C(C)(C)C)n5)c(F)c4)ccnc3[nH]2)c1` [Example 75, 5-tert-Butyl-N-([2-fluoro-4-[2-(4-methoxypyridin-2-yl)-3H-imidazo[4,5-b]pyridin-7-yl]phenyl]methyl)-1,2,4-oxadiazole-3-carboxamide], the IC50 was under 0.1 µM on full-length human BTK, under 0.1 µM in experiment [1] and 0.1 to 1 µM in experiment [2].
As for `Cc1cc(CNC(=O)c2noc(C(C)(C)C)n2)c(F)cc1-c1ccnc2[nH]c(-c3cnn(C)c3)nc12` [Example 77, 5-tert-butyl-N-([2-fluoro-5-methyl-4-[2-(1-methyl-1H-pyrazol-4-yl)-3H-imidazo[4,5-b]pyridin-7-yl]phenyl]methyl)-1,2,4-oxadiazole-3-carboxamide], the 50% inhibitory concentration (IC50) is under 0.1 µM on full-length human BTK, under 0.1 µM in experiment [1] and 1 to 5 µM in experiment [2].
